What was measured:
LNCaP-104R1 cells = settings: androgen independent LNCaP-104R1; cited from earlier work
[1] = test system: mir-17, mir-18a, mir-18b, mir-20a and mir-106a; test: Genome-wide miRNA array profiling of LNCaP-104S cells upon CDX treatment; assay type: cell-based; settings: CDX (5 μM) treatment and androgen blockade (CSFBS), vs untreated LNCaP-104S
Description: We used genome-wide miRNA array (1113 unique primers System Biosciences) profiling approach to dentify specific miRNAs that compensate for androgen ablation. Androgen-dependent (AD) subline of LNCaP cells LNCaP-104S (-104S) and its androgen independent (AI) derivative LNCaP-104R1 (-104R1) were used for monitoring differential expression of miRNAs upon treatment with casodex (CDX). LNCaP-104S cells are CDX-sensitive, whereas LNCaP-104R1 cells are not despite these cells express androgen receptor (AR) at a basal level higher than LNCaP-104S cells. LNCaP-104S cells require DHT for maintaining their AD status but when treated with CDX for 3 weeks in CSFBS (charcoal-stripped FBS), CDX insensitive colonies develop that are independent of androgen (CDXR). We profiled miRNA expression in −104S cells untreated and at 1 wk and 3 wks of treatment with CDX (5 μM) and CSFBS (Table 1). We also compared miRNA expression in untreated −104R1 cells. The ΔΔCT values were obtained for each sample (treatment condition) using LNCaP-104S untreated as the control.

Frabin (FGD4) = test: Western blotting of Frabin in extracts of CDX treated LNCaP-104S cells; assay type: cell-based; settings: western blot
Description: FIG. 2. Expression of FGD4 in untreated LNCap-104R1, LNCaP-104S and LNCaP-104S cells treated with CDX and androgen withdrawal. FIG. 2 A: Western blot of the whole cell extracts. FIG. 2 B: Densitometric analysis of the expression. Data represents the average of 3 separate analyses.
Identification of targets regulated by our candidate miRNAs by MiRDB and TargetScan database search reveled a protein Frabin (FGD4), a GEF that is potentially regulated by mir-17, -21a and -106a and received higher target scores in both searches.

LNCaP-104S cells = settings: androgen-dependent LNCaP-104S; cited from earlier work

CC(O)(CS(=O)(=O)c1ccc(F)cc1)C(=O)Nc1ccc(C#N)c(C(F)(F)F)c1 (stereo not shown) [CDX]
CDX sensitivity (LNCaP-104R1 cells): are not
down regulation of mir-17, mir-18a, mir-18b, mir-20a and mir-106a [1]: 9-10 fold
increase in expression of Frabin (Frabin (FGD4)): > 2.0 fold
CDX sensitivity (LNCaP-104S cells): CDX-sensitive
